ChEMBL document CHEMBL5370665, “Insight from Linker Investigations: Discovery of a Novel Phenylbenzothiazole Necroptosis Inhibitor Targeting Receptor-Interacting Protein Kinase 1 (RIPK1) from a Phenoxybenzothiazole Compound with Dual RIPK1/3 Targeting Activity” (J Med Chem, 2023)
Active and inactive are the calls of the source. No cut-off for these calls is given here.

Columns and labels:
[1] = tested on: Mus musculus; experiment: Anti-inflammatory activity against C57BL/6J mouse model of TNFalpha-induced systemic inflammatory response syndrome (SIRS) assessed as decrease in serum IL-1beta level at 1.25 to 5 mg/kg,po 2 hrs prior to mTNFalpha and z-VAD-FMK stimulation for 8 hrs by ELISA; type: functional, organism-based; conditions: dose 1.25-5 mg/kg, time 10.0 hrs
[2] = Cytotoxicity against human HT-29 cells assessed as reduction in cell viability incubated for 16 to 24 hrs by CellTiter-Glo Luminescent cell viability assay; type: toxicity, cell-based; conditions: time 16-24 hrs
[3] = Metabolic stability in mouse liver mitochondria assessed as degradation rate at 4 micromol/L and measured upto 240 mins; type: ADME; conditions: 4 h, 4 µM, dose 4 µmol/L
[4] = tested on: Mus musculus; experiment: Anti-inflammatory activity against C57BL/6J mouse model of TNFalpha-induced systemic inflammatory response syndrome (SIRS) assessed as increase in survival rate at 5 mg/kg,po 2 hrs prior to mTNFalpha and z-VAD-FMK stimulation and measured upto 24 hrs; type: functional; conditions: time 26 hrs
[5] = tested on: Mus musculus; experiment: Anti-inflammatory activity against C57BL/6J mouse model of TNFalpha-induced systemic inflammatory response syndrome (SIRS) assessed as decrease in IL-1beta level in heart at 1.25 to 5 mg/kg,po 2 hrs prior to mTNFalpha and z-VAD-FMK stimulation for 8 hrs by ELISA; type: functional, organism-based; conditions: dose 1.25-5 mg/kg, time 10.0 hrs
[6] = tested on: Mus musculus; experiment: Anti-inflammatory activity against C57BL/6J mouse model of TNFalpha-induced systemic inflammatory response syndrome (SIRS) assessed as decrease in IL-6 level in brain at 1.25 to 5 mg/kg,po 2 hrs prior to mTNFalpha and z-VAD-FMK stimulation for 8 hrs by ELISA; type: functional, organism-based; conditions: dose 1.25-5 mg/kg, time 10.0 hrs
[7] = molecular target: T1, Receptor-interacting serine/threonine-protein kinase 3 (Homo sapiens, UniProt Q9Y572); experiment: Inhibition of RIPK3 phosphorylation in TSZ induced human HT-29 cells at 1 to 1000 nM pretreated with compound followed by TSZ stimulation for 6 hrs by Western blot analysis; type: cell-based; conditions: dose 1-1000 nM
Target sequence in this assay (Q9Y572 whole entry, looked up, the tested form may be a part): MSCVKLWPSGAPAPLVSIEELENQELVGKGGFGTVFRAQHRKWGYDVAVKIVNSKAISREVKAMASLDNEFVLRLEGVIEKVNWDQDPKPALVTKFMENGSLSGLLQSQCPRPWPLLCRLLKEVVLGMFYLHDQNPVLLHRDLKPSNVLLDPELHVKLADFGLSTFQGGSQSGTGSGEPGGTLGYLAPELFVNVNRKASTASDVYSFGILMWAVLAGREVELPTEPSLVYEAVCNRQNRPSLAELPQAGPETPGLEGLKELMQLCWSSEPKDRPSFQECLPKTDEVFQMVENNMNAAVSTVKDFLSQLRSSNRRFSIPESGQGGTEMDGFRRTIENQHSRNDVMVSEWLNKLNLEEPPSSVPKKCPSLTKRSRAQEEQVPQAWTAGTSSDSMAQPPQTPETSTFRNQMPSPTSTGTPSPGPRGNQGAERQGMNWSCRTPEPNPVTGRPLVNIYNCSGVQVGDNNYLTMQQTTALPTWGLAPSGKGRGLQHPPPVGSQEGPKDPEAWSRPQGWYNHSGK

[8] = molecular target: T2, Mixed lineage kinase domain-like protein (Homo sapiens) (UniProt Q8NB16); experiment: Inhibition of MLKL phosphorylation in TSZ induced human HT-29 cells at 1 uM pretreated with compound followed by TSZ stimulation for 6 hrs by Western blot analysis; type: cell-based
T2 sequence (whole entry): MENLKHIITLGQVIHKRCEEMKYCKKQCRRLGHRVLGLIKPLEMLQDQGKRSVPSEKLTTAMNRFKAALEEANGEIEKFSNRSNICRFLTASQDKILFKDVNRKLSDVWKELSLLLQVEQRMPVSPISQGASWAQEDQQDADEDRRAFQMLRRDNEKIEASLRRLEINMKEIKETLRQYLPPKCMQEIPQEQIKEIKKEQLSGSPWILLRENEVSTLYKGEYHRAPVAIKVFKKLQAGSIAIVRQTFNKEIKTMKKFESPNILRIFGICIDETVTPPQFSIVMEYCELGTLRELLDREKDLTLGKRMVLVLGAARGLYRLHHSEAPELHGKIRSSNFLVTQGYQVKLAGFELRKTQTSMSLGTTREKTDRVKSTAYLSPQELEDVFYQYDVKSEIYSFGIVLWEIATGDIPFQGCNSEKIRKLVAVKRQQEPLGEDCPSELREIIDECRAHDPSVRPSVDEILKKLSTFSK

[9] = tested on: Mus musculus; experiment: Anti-inflammatory activity against C57BL/6J mouse model of TNFalpha-induced systemic inflammatory response syndrome (SIRS) assessed as decrease in IL-1beta level in liver at 1.25 to 5 mg/kg,po 2 hrs prior to mTNFalpha and z-VAD-FMK stimulation for 8 hrs by ELISA; type: functional, organism-based; conditions: dose 1.25-5 mg/kg, time 10.0 hrs
[10] = tested on: Mus musculus; experiment: Anti-inflammatory activity against C57BL/6J mouse model of TNFalpha-induced systemic inflammatory response syndrome (SIRS) assessed as decrease in IL-6 level in intestine at 1.25 to 5 mg/kg,po 2 hrs prior to mTNFalpha and z-VAD-FMK stimulation for 8 hrs by ELISA; type: functional, organism-based; conditions: dose 1.25-5 mg/kg, time 10.0 hrs
[11] = molecular target: T1, Receptor-interacting serine/threonine-protein kinase 3; experiment: Binding affinity to recombinant RIPK3 (unknown origin) assessed as dissociation constant incubated for 1 hr by KINOMEscanTM assay
Target sequence in this assay (Q9Y572 whole entry, the tested form may be a part): as the sequence (Q9Y572 whole entry, looked up, the tested form may be a part) above

[12] = tested on: Mus musculus; experiment: Anti-inflammatory activity against C57BL/6J mouse model of TNFalpha-induced systemic inflammatory response syndrome (SIRS) assessed as decrease in IL-1beta level in kidney at 1.25 to 5 mg/kg,po 2 hrs prior to mTNFalpha and z-VAD-FMK stimulation for 8 hrs by ELISA; type: functional, organism-based; conditions: dose 1.25-5 mg/kg, time 10.0 hrs
[13] = tested on: Mus musculus; experiment: Anti-inflammatory activity against C57BL/6J mouse model of TNFalpha-induced systemic inflammatory response syndrome (SIRS) assessed as increase in survival rate at 1.25 mg/kg,po 2 hrs prior to mTNFalpha and z-VAD-FMK stimulation and measured upto 24 hrs; type: functional; conditions: time 26 hrs
[14] = tested on: L929; experiment: Anti-necroptic activity against mouse L929 cells assessed as inhibition of […] (mouse TNFalpha, z-VAD-FMK) induced necroptosis at 15 to 500 nM pretreated with compound followed by TZ stimulation for 6 hrs by CellTiter-Glo Luminescent cell viability assay; type: functional, cell-based; conditions: dose lower […], dose upper 500.0 nM
[15] = tested on: Mus musculus; experiment: Anti-inflammatory activity against C57BL/6J mouse model of TNFalpha-induced systemic inflammatory response syndrome (SIRS) assessed as decrease in IL-1beta level in intestine at 1.25 to 5 mg/kg,po 2 hrs prior to mTNFalpha and z-VAD-FMK stimulation for 8 hrs by ELISA; type: functional, organism-based; conditions: dose 1.25-5 mg/kg, time 10.0 hrs
[16] = tested on: Mus musculus; experiment: Anti-inflammatory activity against C57BL/6J mouse model of TNFalpha-induced systemic inflammatory response syndrome (SIRS) assessed as increase in survival rate at 2.5 mg/kg,po 2 hrs prior to mTNFalpha and z-VAD-FMK stimulation and measured upto 24 hrs; type: functional; conditions: time 26 hrs
[17] = Metabolic stability in human liver mitochondria assessed as degradation rate at 4 micromol/L and measured upto 240 mins; type: ADME; conditions: 4 h, 4 µM, dose 4 µmol/L
[18] = molecular target: T1, Receptor-interacting serine/threonine-protein kinase 3; experiment: Inhibition of RIPK3 phosphorylation in TSZ induced human HT-29 cells at 1 uM pretreated with compound followed by TSZ stimulation for 6 hrs by Western blot analysis; type: cell-based
Target sequence in this assay (Q9Y572 whole entry, looked up, the tested form may be a part): as the sequence (Q9Y572 whole entry, looked up, the tested form may be a part) above

[19] = Acute toxicity in mouse assessed as pathological damage in heart at 100 to 200 mg/kg,IG and measured after 14 days by H and E staining based microscopy; type: organism-based; conditions: in vivo, po, 336 h, dose 100-200 mg/kg, time 14 day

In the case of `O=C(Cc1cccc(OC(F)(F)F)c1)Nc1cc(-c2ccc3nc(NC(=O)C4CC4)sc3c2)ccc1F`, the Activity [1] is reported as “Active”, the CC50 [2] is reported as > 10 µM and the Stability [3] is reported as “Stable”. The survival at 5 mg/kg [4] was 100%, the Activity [5] was “inactive” and the Activity [6] was “Dose-Dependent Effect”. The inhibition [7] was “Dose-Dependent Effect”, the inhibition [8] was “Active” and the Activity [9] was “inactive”. For the same compound, the Activity [10] was “Dose-Dependent Effect”, the Kd [11] was > 5 µM and the Activity [12] was “inactive”. For the same compound, the survival at 1.25 mg/kg [13] was 70%, the Activity [14] was “Active” and the Activity [15] was “Active”. The survival at 2.5 mg/kg [16] was 80%, the Stability [17] was “Stable” and the inhibition [18] was “Active”. The Activity [19] was “Non-Toxic”.
